Assay results as given in patent US9738634B2, “Heterocyclic amide compound and herbicide” (SYNGENTA PARTICIPATIONS AG, priority 2013, dated 2017).

Legend:
Format in all cases: in vivo
[1] = system: oval-leafed pondweed; assay: Test Example 2: weedkilling efficacy, growth period weed treatment in the submerged state; C: oval-leafed pondweed; conditions: treatment dosage 320 g/ha
In short: (§1)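 Seedlings at 1-2 leaves in 4 cm-deep submerged alluvial soil received emulsion formulations on the water surface, dosed per hectare; effects were judged 3 weeks on.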

[2] = system: common wind-grass; assay: Test Example 3: weedkilling efficacy through soil treatment; J: common wind-grass; conditions: soil treatment, treatment dosage 320 g/ha
In short: (§2)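 Crop and weed responses were judged three weeks after a uniform surface spray of the water-diluted emulsion at the given g/ha rate. Seeds sat beneath about 1.5 cm of sterilized diluvial soil, and boxes stood in a greenhouse at 25 to 30° C.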

[3] = system: beet; assay: Test Example 3: soil treatment, effect on crop; f: beet; conditions: soil treatment, treatment dosage 320 g/ha
In short: as §2

[4] = system: wheat; assay: Test Example 3: soil treatment, effect on crop; e: wheat; conditions: soil treatment, treatment dosage 320 g/ha
In short: as §2

[5] = system: chickweed; assay: Test Example 3: weedkilling efficacy through soil treatment; N: chickweed; conditions: soil treatment, treatment dosage 320 g/ha
In short: as §2

[6] = system: black-grass; assay: Test Example 3: weedkilling efficacy through soil treatment; H: black-grass; conditions: soil treatment, treatment dosage 320 g/ha
In short: as §2

[7] = system: bulrush; assay: Test Example 1: weedkilling efficacy, preemergent weed treatment in the submerged state; B: bulrush; conditions: treatment dosage 320 g/ha
In short: (§3)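 Pre-emergence paddy test: weed seeds sown in submerged alluvial soil (4 cm water), 2.5-leaf rice transplanted, water-diluted emulsion applied to water surface at sowing at stated g/ha. Scored at 3 weeks, greenhouse 25–30 °C.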

[8] = system: oval-leafed pondweed; assay: Test Example 1: weedkilling efficacy, preemergent weed treatment in the submerged state; C: oval-leafed pondweed; conditions: treatment dosage 320 g/ha
In short: as §3

[9] = system: wild oat; assay: Test Example 3: weedkilling efficacy through soil treatment; G: wild oat; conditions: soil treatment, treatment dosage 320 g/ha
In short: as §2

[10] = system: fig-leafed goosefoot; assay: Test Example 3: weedkilling efficacy through soil treatment; M: fig-leafed goosefoot; conditions: soil treatment, treatment dosage 320 g/ha
In short: as §2

[11] = system: directly sown rice; assay: Test Example 3: soil treatment, effect on crop; b: directly sown rice; conditions: soil treatment, treatment dosage 320 g/ha
In short: as §2

[12] = system: corn; assay: Test Example 3: soil treatment, effect on crop; c: corn; conditions: soil treatment, treatment dosage 320 g/ha
In short: as §2

[13] = system: barnyard grass; assay: Test Example 2: weedkilling efficacy, growth period weed treatment in the submerged state; A: barnyard grass; conditions: treatment dosage 320 g/ha
In short: as §1

[14] = system: barnyard grass; assay: Test Example 3: weedkilling efficacy through soil treatment; F: barnyard grass; conditions: soil treatment, treatment dosage 320 g/ha
In short: as §2

[15] = system: barnyard grass; assay: Test Example 1: weedkilling efficacy, preemergent weed treatment in the submerged state; A: barnyard grass; conditions: treatment dosage 320 g/ha
In short: as §3

[16] = system: catchweed; assay: Test Example 3: weedkilling efficacy through soil treatment; O: catchweed; conditions: soil treatment, treatment dosage 320 g/ha
In short: as §2

[17] = system: redroot pigweed; assay: Test Example 3: weedkilling efficacy through soil treatment; L: redroot pigweed; conditions: soil treatment, treatment dosage 320 g/ha
In short: as §2

[18] = system: soybean; assay: Test Example 3: soil treatment, effect on crop; d: soybean; conditions: soil treatment, treatment dosage 320 g/ha
In short: as §2

[19] = system: transplanted rice; assay: Test Example 1: preemergent weed treatment in the submerged state, effect on crop; a: transplanted rice; conditions: treatment dosage 320 g/ha
In short: as §3

[20] = system: green foxtail; assay: Test Example 3: weedkilling efficacy through soil treatment; E: green foxtail; conditions: soil treatment, treatment dosage 320 g/ha
In short: as §2

[21] = system: Indian mallow; assay: Test Example 3: weedkilling efficacy through soil treatment; K: Indian mallow; conditions: soil treatment, treatment dosage 320 g/ha
In short: as §2

[22] = system: rapeseed; assay: Test Example 3: soil treatment, effect on crop; g: rapeseed; conditions: soil treatment, treatment dosage 320 g/ha
In short: as §2

[23] = system: bulrush; assay: Test Example 2: weedkilling efficacy, growth period weed treatment in the submerged state; B: bulrush; conditions: treatment dosage 320 g/ha
In short: as §1

[24] = system: Italian ryegrass; assay: Test Example 3: weedkilling efficacy through soil treatment; I: Italian ryegrass; conditions: soil treatment, treatment dosage 320 g/ha
In short: as §2

[25] = system: birds-eye speedwell; assay: Test Example 3: weedkilling efficacy through soil treatment; p: birds-eye speedwell; conditions: soil treatment, treatment dosage 320 g/ha
In short: as §2

[26] = system: crabgrass; assay: Test Example 3: weedkilling efficacy through soil treatment; D: crabgrass; conditions: soil treatment, treatment dosage 320 g/ha
In short: as §2

CCc1cc(F)nc(NC(=O)C(C)(C)N2COCN(c3ccccc3)C2=O)c1 [A-2-21]
C (oval-leafed pondweed) weedkilling efficacy grade [1]: 5 (weed kill ratio 90% or more, (practically complete withering)) | J: common wind-grass, weedkilling efficacy grade [2]: 5 (weed kill ratio 90% or more, (practically complete withering)) | f: beet, effect on crop grade [3]: 0 (weed kill ratio 5% or less (practically no effect)) | e: wheat, effect on crop grade [4]: 1 (weed kill ratio 5% or more, less than 20%) | N: chickweed, weedkilling efficacy grade [5]: 4 (weed kill ratio 70% or more, less than 90%) | H: black-grass, weedkilling efficacy grade [6]: 5 (weed kill ratio 90% or more, (practically complete withering)) | B: bulrush, weed kill grade [7]: 5 (weed kill ratio 90% or more, (practically complete withering)) | C: oval-leafed pondweed, weed kill grade [8]: 5 (weed kill ratio 90% or more, (practically complete withering)) | G: wild oat, weedkilling efficacy grade [9]: 5 (weed kill ratio 90% or more, (practically complete withering)) | M: fig-leafed goosefoot, weedkilling efficacy grade [10]: 5 (weed kill ratio 90% or more, (practically complete withering)) | b: directly sown rice, effect on crop grade [11]: 5 (weed kill ratio 90% or more, (practically complete withering)) | c: corn, effect on crop grade [12]: 0 (weed kill ratio 5% or less (practically no effect)) | A (barnyard grass) weedkilling efficacy grade [13]: 5 (weed kill ratio 90% or more, (practically complete withering)) | F: barnyard grass, weedkilling efficacy grade [14]: 5 (weed kill ratio 90% or more, (practically complete withering)) | A: barnyard grass, weed kill grade [15]: 5 (weed kill ratio 90% or more, (practically complete withering)) | O: catchweed, weedkilling efficacy grade [16]: 4 (weed kill ratio 70% or more, less than 90%) | L: redroot pigweed, weedkilling efficacy grade [17]: 4 (weed kill ratio 70% or more, less than 90%) | d: soybean, effect on crop grade [18]: 3 (weed kill ratio 40% or more, less than 70%) | a: transplanted rice, effect on crop grade [19]: 5 (weed kill ratio 90% or more, (practically complete withering)) | E: green foxtail, weedkilling efficacy grade [20]: 5 (weed kill ratio 90% or more, (practically complete withering)) | K: Indian mallow, weedkilling efficacy grade [21]: 2 (weed kill ratio 20% or more, less than 40%) | g: rapeseed, effect on crop grade [22]: 4 (weed kill ratio 70% or more, less than 90%) | B (bulrush) weedkilling efficacy grade [23]: 5 (weed kill ratio 90% or more, (practically complete withering)) | I: Italian ryegrass, weedkilling efficacy grade [24]: 5 (weed kill ratio 90% or more, (practically complete withering)) | P: birds-eye speedwell, weedkilling efficacy grade [25]: 5 (weed kill ratio 90% or more, (practically complete withering)) | D: crabgrass, weedkilling efficacy grade [26]: 5 (weed kill ratio 90% or more, (practically complete withering))
